These results are taken from US7858621B2 (Amorepacific Corporation, priority 2006, dated 2010).

In one data set the target is T1, vanilloid receptor (Rattus norvegicus, UniProt O35433).
T1 construct: DRG nerve cells from the primary culture of 2 days were equilibrated; endogenous in cells; host or cells: primary culture of dorsal root ganglion neurons from neonatal SD rats
Nature of the data set: 45Ca influx test in cultured neonatal rat DRG neurons, inhibition of capsaicin response. It is filed as cell-based. A digest of the protocol: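 45Ca influx measured by scintillation counting of SDS-eluted neurons after 10 min at room temperature with test compound, 0.5 μM capsaicin (final) and 10 μCi/ml 45Ca in Ca/Mg-free HEPES-HBSS pH 7.4. Cells: primary DRG neurons from newborn SD rats, cultured 2 days with NGF and Ara-C.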

Data set [1] is described as follows: Metabolic stability test in rat liver microsomes. The data set is classed as in vitro ADME. As to conditions: 5 μg/mL, 0.5 mg/mL protein, 30 min incubation. How it is done: (§1) 1) Metabolic Stability Test
(§2) Diluted sample (final 5 μg/mL in 0.1 M potassium phosphate buffer, pH 7.4) was pre-incubated with cofactors (glucose-6-phosphate 3.3 mM, NADPH 1.3 mM, MgCl2 0.16 mM, glucose-6-phosphate dehydrogenase 0.4 U/mL final) and enzyme reaction was initiated with the addition of human intestinal (1 mg/mL protein) or rat liver microsomes (0.5 mg/mL protein). Reaction was terminated with 2× volume of cold acetonitrile after 1 min (initial point) or 30 min (reacted sample) incubation. In case of human intestinal microsomes, 2 hr reaction time was employed. Reaction mixture was undergone extraction in shaking bath over 20 min, after which resultant supernatant was separated by centrifugation. Area of parent compound peak was analyzed in the supernatant using HPLC-UV method and the extent of metabolism was shown as the decreased compound peak area (%) from initial point.
Background: Liver microsomes are vesicles of endoplasmic reticulum, rich in cytochrome P450 enzymes.

Data set [2] can be described thus: Metabolic stability test in human intestinal microsomes. It is filed as in vitro ADME. As to conditions: 5 μg/mL, 1 mg/mL protein, 2 hr reaction time. How it is done: as §1, §2
A short description of data set [3]: PK study in rats, single oral administration. It is filed as in vivo. Set-up: AUC: concentration or dose not given beside the values. To be noted: rat, plasma. As to the method:
Pharmacokinetics of compounds in rats were analyzed using the following experiment. Rats were fasted overnight prior to administration and until approximately 4 hours after administration. Rats were given a single oral administration of compound at same dose. Administration volume was 10 ml/kg. Blood samples were collected from the retro-orbital sinus at various times over the following 7 hrs. Immediately after each collection, plasmas were separated from blood cells by centrifugation and stored at −20° C. until the analysis was performed. The plasma samples were analyzed using a reverse phase high-performance chromatography (HPLC) method.

Setting [4] is: neonatal rat DRG neurons, capsaicin 0.5 μM, 45Ca influx, read-out: Antagonist Calcium Uptake Test (IC50).
The mark [5] stands for this setting: Table 3, unit inferred, read-out: IC50.

Each structure is given as a SMILES string. Read-outs that look alike come from different tables or passages of the source. A value given as a limit tells only on which side of the number the result lay.

T1 sequence (O35433 whole entry): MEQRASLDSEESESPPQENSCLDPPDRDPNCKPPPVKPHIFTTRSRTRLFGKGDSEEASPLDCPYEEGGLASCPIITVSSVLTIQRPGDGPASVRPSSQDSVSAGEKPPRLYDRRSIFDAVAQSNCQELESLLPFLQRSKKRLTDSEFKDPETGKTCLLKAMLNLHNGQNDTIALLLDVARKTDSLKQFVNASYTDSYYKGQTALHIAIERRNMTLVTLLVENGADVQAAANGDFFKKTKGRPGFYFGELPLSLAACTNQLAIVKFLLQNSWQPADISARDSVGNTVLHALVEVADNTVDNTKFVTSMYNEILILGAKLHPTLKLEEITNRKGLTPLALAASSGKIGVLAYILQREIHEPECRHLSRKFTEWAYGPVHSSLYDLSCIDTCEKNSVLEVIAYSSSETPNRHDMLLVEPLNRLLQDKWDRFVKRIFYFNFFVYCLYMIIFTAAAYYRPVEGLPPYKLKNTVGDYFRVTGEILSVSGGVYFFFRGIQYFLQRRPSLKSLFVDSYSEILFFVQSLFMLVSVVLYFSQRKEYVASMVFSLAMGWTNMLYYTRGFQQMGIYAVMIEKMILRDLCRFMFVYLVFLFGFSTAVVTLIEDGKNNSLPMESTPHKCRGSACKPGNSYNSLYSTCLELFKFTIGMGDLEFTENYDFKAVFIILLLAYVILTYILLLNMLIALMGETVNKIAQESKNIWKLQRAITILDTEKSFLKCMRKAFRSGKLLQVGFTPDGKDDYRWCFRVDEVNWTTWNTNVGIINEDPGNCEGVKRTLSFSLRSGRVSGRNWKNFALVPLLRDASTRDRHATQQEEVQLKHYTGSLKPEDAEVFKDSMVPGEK

On to `C#Cc1cc(CNC(=O)/C=C/c2ccc(C(F)(F)F)nc2N2CCOCC2)cc(F)c1NS(C)(=O)=O` [Example 12, N-(3-Ethynyl-5-fluoro-4-methanesulfonylamino-benzyl)-3-(2-morpholin-4-yl-6-trifluoromethyl-pyridin-3-yl)-acrylamide], for which the IC50 – broadly, the midpoint of a concentration-inhibition curve – on vanilloid receptor (setting [4]) was 260 nM. Moreover, the “Stability RLM (% metabolized in rat liver microsomes)” value in data set [1] is listed as 11.7%. Further, the “Stability HIM (% metabolized in human intestinal microsomes)” value in data set [2] was 12.0%. In data set [3], the AUC (as a rule, the area under the concentration-time curve, a measure of exposure) stood at 3240 ng·h/mL; the Cmax (as a rule, the highest concentration seen after dosing) turned out to be 723 ng/mL; the Tmax – broadly, the time from dosing to the highest level – stood at 2.38 h; the half-life (as a rule, the time needed for the level to fall by half in the phase considered) is 1.7 h.

On to `C#Cc1cc(CNC(=O)/C=C/c2ccc(C(F)(F)F)nc2OC)cc(F)c1NS(C)(=O)=O` [Example 42, N-(3-Ethynyl-5-fluoro-4-methanesulfonylamino-benzyl)-3-(2-methoxy-6-trifluoromethyl-pyridin-3-yl)-acrylamide], for which the IC50 on vanilloid receptor (setting [4]) was found to be 96 nM. In data set [1], the “Stability RLM (% metabolized in rat liver microsomes)” value was found to be 17.1%. Further, the “Stability HIM (% metabolized in human intestinal microsomes)” value in data set [2] amounted to 17.1%.

For `COCCNc1nc(C(F)(F)F)ccc1/C=C/C(=O)NCc1ccc(NS(C)(=O)=O)c(F)c1` [Example 45, N-(3-Fluoro-4-methanesulfonylamino-benzyl)-3-[2-(2-methoxy-ethylamino)-6-trifluoromethyl-pyridin-3-yl]-acrylamide], the half-maximal inhibitory concentration (IC50) at vanilloid receptor (setting [4]) came to 510 nM. Also, the “Stability RLM (% metabolized in rat liver microsomes)” value in data set [1] was determined as 10%. In data set [2], the “Stability HIM (% metabolized in human intestinal microsomes)” value is given as 8.0%.

On to `C#Cc1cc(CNC(=O)/C=C/c2ccc(C(F)(F)F)nc2)cc(F)c1NS(C)(=O)=O` [Example 57, N-(3-Ethynyl-5-fluoro-4-methanesulfonylamino-benzyl)-3-(6-trifluoromethyl-pyridin-3-yl)-acrylamide], for which the IC50 on vanilloid receptor (setting [5]) is over 10000 nM. In addition, the IC50 on vanilloid receptor (setting [4]) is over 10000 nM. For the same compound, in data set [3], the AUC was 56500 ng·h/mL, the highest level (Cmax) was 2200 ng/mL, the Tmax was found to be 0.833 h and the half-life was 3.95 h.

`C#Cc1cc(CNC(=O)/C=C/c2ccc(C(F)(F)F)nc2NCCOC)cc(F)c1NS(C)(=O)=O` [Example 65, N-(3-Ethynyl-5-fluoro-4-methanesulfonylamino-benzyl)-3-[2-(2-methoxy-ethylamino)-6-trifluoromethyl-pyridin-3-yl]-acrylamide]: the IC50 at vanilloid receptor (setting [4]) is 89 nM. Also, in data set [1], the “Stability RLM (% metabolized in rat liver microsomes)” value was determined as 15.3%. The “Stability HIM (% metabolized in human intestinal microsomes)” value in data set [2] turned out to be 14.0%.

As to `C#Cc1cc(CNC(=O)/C=C/c2ccc(C(F)(F)F)nc2OCCOC)cc(F)c1NS(C)(=O)=O` [Example 75, N-(3-Ethynyl-5-fluoro-4-methanesulfonylamino-benzyl)-3-[2-(2-methoxy-ethoxy)-6-trifluoromethyl-pyridin-3-yl]-acrylamide], at vanilloid receptor (setting [4]), the IC50 amounted to 370 nM. Also, the “Stability RLM (% metabolized in rat liver microsomes)” value in data set [1] is listed as 17.0%. In addition, the “Stability HIM (% metabolized in human intestinal microsomes)” value in data set [2] is listed as 17.0%.

Take `C#Cc1cc(CNC(=O)/C=C/c2ccc(C(F)(F)F)nc2NC(C)C)cc(F)c1NS(C)(=O)=O` [Example 100, N-(3-Ethynyl-5-fluoro-4-methanesulfonylamino-benzyl)-3-(2-isopropylamino-6-trifluoromethyl-pyridin-3-yl)-acrylamide]: on vanilloid receptor (setting [4]), the IC50 stood at 69 nM. The “Stability RLM (% metabolized in rat liver microsomes)” value in data set [1] came out at 3.4%. In addition, the “Stability HIM (% metabolized in human intestinal microsomes)” value in data set [2] amounted to 0%. Moreover, in data set [3], the AUC stood at 17400 ng·h/mL, the concentration peaked (Cmax) at 2530 ng/mL, the Tmax was found to be 3 h and the half-life was 3.21 h.

`CCCCNc1nc(C(F)(F)F)ccc1/C=C/C(=O)NCc1cc(C)c(NS(C)(=O)=O)c(F)c1` [Example 188, N-(3-Fluoro-4-methanesulfonylamino-5-methyl-benzyl)-3-(2-butylamino-6-trifluoromethyl-pyridin-3-yl)-acrylamide]: the concentration for half-maximal inhibition (IC50) at vanilloid receptor (setting [4]) was 87 nM. For the same compound, the “Stability RLM (% metabolized in rat liver microsomes)” value in data set [1] was 2.7%. Besides, the “Stability HIM (% metabolized in human intestinal microsomes)” value in data set [2] turned out to be 1.6%.

With `C#Cc1cc(CNC(=O)/C=C/c2ccc(C(F)(F)F)nc2CCC)cc(F)c1NS(C)(=O)=O` [Example 206, N-(3-Ethynyl-5-fluoro-4-methanesulfonylamino-benzyl)-3-(2-propyl-6-trifluoromethyl-pyridin-3-yl)-acrylamide], the IC50 on vanilloid receptor (setting [4]) turned out to be 40 nM. In data set [3], the area under the curve (AUC) was 25900 ng·h/mL, the Cmax came to 5500 ng/mL, the Tmax is 3.5 h and the half-life was 1.42 h.

Take `CCCNc1nc(C(F)(F)F)ccc1/C=C/C(=O)NCc1cc(F)c(NS(C)(=O)=O)c(F)c1` [Example 222, N-(3,5-Difluoro-4-methanesulfonylamino-benzyl)-3-(2-propylamino-6-trifluoromethyl-pyridin-3-yl)-acrylamide]: at vanilloid receptor (setting [4]), the IC50 is 49 nM. Besides, the “Stability RLM (% metabolized in rat liver microsomes)” value in data set [1] is 0%. Moreover, in data set [2], the “Stability HIM (% metabolized in human intestinal microsomes)” value is reported as 0%.

Take `CCCc1nc(C(F)(F)F)ccc1/C=C/C(=O)NCc1ccc(NS(C)(=O)=O)c(Cl)c1` [Example 253, N-(3-Chloro-4-methanesulfonylamino-benzyl)-3-(2-propyl-6-trifluoromethyl)-pyridin-3-yl-acrylamide]: on vanilloid receptor (setting [4]), the IC50 is 500 nM. Moreover, the “Stability RLM (% metabolized in rat liver microsomes)” value in data set [1] is given as 0%. The “Stability HIM (% metabolized in human intestinal microsomes)” value in data set [2] is 3.2%.

Take `C=Cc1cc(CNC(=O)/C=C/c2ccc(C(F)(F)F)nc2N2CCOCC2)cc(F)c1NS(C)(=O)=O` [Example 281, N-(3-Ethenyl-5-fluoro-4-methanesulfonylamino-benzyl)-3-(2-morpholin-1-yl-6-trifluoromethyl-pyridin-3-yl)-acrylamide]: the IC50 on vanilloid receptor (setting [4]) is 220 nM. Besides, the “Stability RLM (% metabolized in rat liver microsomes)” value in data set [1] is on record as 0.5%. Besides, the “Stability HIM (% metabolized in human intestinal microsomes)” value in data set [2] amounted to 0%. Moreover, in data set [3], the AUC stood at 654 ng·h/mL, the peak concentration (Cmax) was found to be 215 ng/mL, the Tmax was 2 h and the half-life was 1.26 h.

Take `C=Cc1cc(CNC(=O)/C=C/c2ccc(C(C)(C)C)nc2)ccc1NS(C)(=O)=O` [Examples 4]: on vanilloid receptor (setting [4]), the IC50 was determined as 220 nM.

Turning to `COc1nc(C(C)(C)C)ccc1/C=C/C(=O)NCc1ccc(NS(C)(=O)=O)c(F)c1` [Examples 9], the IC50 at vanilloid receptor (setting [4]) was determined as 400 nM.

With `C=Cc1cc(CNC(=O)/C=C/c2ccc(C(C)(C)C)cc2)cc(F)c1NS(C)(=O)=O` [Examples 16], the IC50 on vanilloid receptor (setting [5]) amounted to 47 nM. The compound also gave a maximum concentration (Cmax) in data set [3] of under 100 ng/mL.

For the compound `CS(=O)(=O)Nc1ccc(CNC(=O)/C=C/c2ccc(Cl)nc2)cc1F` [Examples 16], the IC50 at vanilloid receptor (setting [4]) is over 10000 nM.

In data set [3], `C=Cc1cc(CNC(=O)/C=C/c2ccc(C(C)(C)C)cc2N2CCOCC2)cc(F)c1NS(C)(=O)=O` [Examples 22] showed a Cmax of under 100 ng/mL.

For `CS(=O)(=O)Nc1c(F)cc(CNC(=O)/C=C/c2ccc(C(F)(F)F)nc2N2CCOCC2)cc1C(F)(F)F` [Examples 22], on vanilloid receptor (setting [4]), the IC50 was determined as 3300 nM.

Turning to `C#Cc1cc(CNC(=O)/C=C/c2ccc(N3CCOCC3)nc2)cc(F)c1NS(C)(=O)=O` [Examples 23], the IC50 at vanilloid receptor (setting [4]) is over 10000 nM.

Regarding `CC(C)(C)c1ccc(OCC(=O)NCc2ccc(NS(C)(=O)=O)c(F)c2)c(Br)n1` [Examples 28], at vanilloid receptor (setting [4]), the IC50 stood at 1600 nM.

For the compound `C#Cc1cc(CNC(=O)COc2ccc(C(C)(C)C)nc2)cc(F)c1NS(C)(=O)=O` [Examples 34], the IC50 at vanilloid receptor (setting [4]) is over 10000 nM.

Take `C=Cc1cc(CNC(=O)/C=C/c2ccc(C(C)(C)C)cc2NC(C)C)cc(F)c1NS(C)(=O)=O` [Examples 34]: the Cmax in data set [3] was under 100 ng/mL.

Consider `C#Cc1cc(CNC(=O)/C=C/c2ccc(C(C)(C)C)cc2N2CCOCC2)cc(F)c1NS(C)(=O)=O` [drawing 334, reference compound], for which, at vanilloid receptor (Table 2, unit inferred, read-out: IC50), the IC50 was 860 nM. The “Stability RLM (% metabolized in rat liver microsomes)” value in data set [1] turned out to be 12.8%. Besides, the “Stability HIM (% metabolized in human intestinal microsomes)” value in data set [2] was found to be 54.0%.

Regarding `C#Cc1cc(CNC(=O)/C=C/c2ccc(C(C)(C)C)cc2N2CCOCC2)cc(F)c1NS(C)(=O)=O` [drawing 350, reference compound], on vanilloid receptor (setting [5]), the 50% inhibitory concentration (IC50) is 860 nM. Moreover, in data set [3], the AUC worked out at 706 ng·h/mL, the Cmax came out at 334 ng/mL, the Tmax is 2 h and the half-life was 0.932 h.
